In US11324762B2, “Deuterated derivatives of psilocybin and uses thereof” (Lennham Pharmaceuticals, Inc., priority 2020, dated 2022):

Assays:
Type in all cases: in vitro ADME
[1] = metabolic stability and metabolite formation in human hepatocytes; details: 1.0 million viable cells/ml, 37° C., 0-60 min
Protocol: (§1) A study was conducted to assess the metabolic stability and metabolite formulation of psilocin and d10-psilocin (the compound of Formula (IB-1)) in human hepatocytes under the conditions set forth in Table 1.

[2] = tested on: human hepatocytes; experiment: as above; details: 1 μM, 60 min
Protocol: as §1

[3] = target: T1, human MAO-A (Homo sapiens, UniProt P21397); experiment: metabolism of psilocin and d10-psilocin by human MAO-A (Example 3); details: 0.2 μM, protein 1 mg/ml, 0-30 min, FIG. 2
T1 sequence (P21397 1-527): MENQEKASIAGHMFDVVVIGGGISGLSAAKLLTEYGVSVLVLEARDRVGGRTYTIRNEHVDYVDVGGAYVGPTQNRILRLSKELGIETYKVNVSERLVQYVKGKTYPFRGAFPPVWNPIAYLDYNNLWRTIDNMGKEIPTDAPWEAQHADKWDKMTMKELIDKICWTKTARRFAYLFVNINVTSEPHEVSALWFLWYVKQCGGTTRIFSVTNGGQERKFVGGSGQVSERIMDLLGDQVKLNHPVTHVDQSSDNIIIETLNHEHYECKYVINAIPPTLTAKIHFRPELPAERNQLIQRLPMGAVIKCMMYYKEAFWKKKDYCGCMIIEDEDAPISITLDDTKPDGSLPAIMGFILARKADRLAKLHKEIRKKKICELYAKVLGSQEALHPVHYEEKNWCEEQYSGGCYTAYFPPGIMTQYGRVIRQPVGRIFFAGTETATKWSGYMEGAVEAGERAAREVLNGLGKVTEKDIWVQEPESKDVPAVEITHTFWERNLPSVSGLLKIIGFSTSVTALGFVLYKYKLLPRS
Protocol: A study was conducted to assess the metabolism of psilocin and d10-psilocin (the compound of Formula (IB-1)) by human MAO-A under the conditions set forth in Table 3.

[4] = target: T1, human MAO-A; experiment: metabolism of psilocin by human MAO-A (Example 2); details: 0.2 and 2 μM, protein 0.03-1 mg/ml, 0-30 min, FIGS. 1A & 1B

| SMILES | half-life at 1 μM [1] [h] | metabolite 4-hydroxy-indole-3-acetic acid after 60-minute incubation [2] | parent remained after the 60-minute incubation [2] | rate of metabolism by human MAO-A compared with psilocin [3] | metabolism by human MAO-A [4] |
| --- | --- | --- | --- | --- | --- |
| [2H]C([2H])([2H])N(C([2H])([2H])[2H])C([2H])([2H])C([2H])([2H])c1c[nH]c2cccc(O)c12 [d10-psilocin] | 4.97 | undetected | approximately 84% | metabolized more slowly by human MAO-A than psilocin |  |
| CN(C)CCc1c[nH]c2cccc(O)c12 [psilocin, 4-hydroxy-N,N-dimethyltryptamine] | 2.97 |  | approximately 78% |  | metabolized by human MAO-A |
